Reference: the NIST ThermoML archive (doi:10.1016/j.jct.2019.02.027)
Where “and” joins values, the source holds several entries; their conditions need not be identical. Equal values may be shown once.

What was measured:
[1] = xn = mol fraction of the nth substance listed; conditions: 298.15 K, 100 kPa, Liquid, Vibrating tube method
[2] = 298.15 K; 101.33 kPa; Liquid; Vibrating tube method

CCCO [propan-1-ol] + O=Cc1ccco1
Conditions	mass density [kg/m3]
[1], x2 = 0	799.97

CCCCCO [pentan-1-ol] + O=Cc1ccco1
Conditions	mass density [kg/m3]
[1], x2 = 0	810.9

Cc1ccco1 [2-methylfuran] + CCCCCO
[1]
Conditions	mass density [kg/m3]
x1 = 0.1002	819.28
x1 = 0.1263	821.43
x1 = 0.1771	825.74
x1 = 0.22	829.43
x1 = 0.2723	834
x1 = 0.3399	840.06
x1 = 0.4257	848.01
x1 = 0.4599	851.26
x1 = 0.5134	856.49
x1 = 0.593	864.51
x1 = 0.6556	871.07
x1 = 0.7006	875.92
x1 = 0.7559	881.98
x1 = 0.8293	890.24
x1 = 0.8836	896.44
x1 = 1	910.73

Cc1ccco1 [2-methylfuran] + CCCCCCO
[1]
Conditions	mass density
x1 = 0.048	819.02 kg/m3
x1 = 0.0765	820.93 kg/m3
x1 = 0.1423	825.44 kg/m3
x1 = 0.2086	830.14 kg/m3
x1 = 0.2804	835.45 kg/m3
x1 = 0.3598	841.72 kg/m3
x1 = 0.4591	850.07 kg/m3
x1 = 0.4916	852.91 kg/m3
x1 = 0.5728	860.42 kg/m3
x1 = 0.6478	867.88 kg/m3
x1 = 0.7472	878.45 kg/m3 and 878.33 kg/m3
x1 = 0.7965	884.09 kg/m3
x1 = 0.8596	891.67 kg/m3
x1 = 0.888	895.23 kg/m3
x1 = 0.9411	902.08 kg/m3
x1 = 1	910.73 kg/m3

CCO [ethanol] + O
[1]
Conditions	mass density [kg/m3]
x1 = 0.0641	970.7
x1 = 0.127	952.3
x1 = 0.1461	950.1
x1 = 0.2437	920.1
x1 = 0.387	883.5
x1 = 0.4238	876.2
x1 = 0.7084	825.2
x1 = 1	785.5

O=Cc1ccco1 [2-furaldehyde] + CCCC(C)O
Conditions	mass density [kg/m3]
[1], x1 = 1	1155.45

CCCC(C)O (configuration not stated) [pentan-2-ol] + Cc1ccco1
Conditions	mass density [kg/m3]
[1], x2 = 0	806.48

CCCC(C)O (configuration not stated) [pentan-2-ol]
Conditions	mass density [kg/m3]
[2]	806.48

O=Cc1ccco1 [2-furaldehyde] + CC(C)O
[1]
Conditions	mass density [kg/m3]
x1 = 0.0534	803.11
x1 = 0.0877	817.2
x1 = 0.1839	856.01
x1 = 0.2041	864.12
x1 = 0.2517	882.87
x1 = 0.2794	893.74
x1 = 0.2855	896.16
x1 = 0.4063	942.61
x1 = 0.5153	983.56
x1 = 0.5364	991.32
x1 = 0.5702	1003.8
x1 = 0.6564	1035.2
x1 = 0.7345	1063.04
x1 = 0.8252	1094.94
x1 = 0.9055	1122.98
x1 = 1	1155.45

CCC(C)O (configuration not stated) [butan-2-ol] + O=Cc1ccco1
Conditions	mass density [kg/m3]
[1], x2 = 0	802.88

O=Cc1ccco1 [2-furaldehyde] + CCC(C)O
[1]
Conditions	mass density [kg/m3]
x1 = 0.0237	810.18
x1 = 0.0782	827.38
x1 = 0.1343	845.24
x1 = 0.1345	845.28
x1 = 0.2696	889.52
x1 = 0.2773	892.16
x1 = 0.417	939.59
x1 = 0.4498	951
x1 = 0.535	980.92
x1 = 0.6274	1014.08
x1 = 0.6673	1028.58
x1 = 0.7355	1053.74
x1 = 0.803	1079.08
x1 = 0.8794	1108.12
x1 = 1	1155.45

CCCO [propan-1-ol]
Conditions	mass density [kg/m3]
[2]	799.97

CCCCCCO [hexan-1-ol]
Conditions	mass density [kg/m3]
[2]	815.9

O=Cc1ccco1 [2-furaldehyde] + CCCO
[1]
Conditions	mass density [kg/m3]
x1 = 0.0847	834.01
x1 = 0.134	853.46
x1 = 0.2237	888
x1 = 0.2415	894.81
x1 = 0.2507	898.28
x1 = 0.2827	910.39
x1 = 0.3632	940.23
x1 = 0.4309	964.88
x1 = 0.5022	990.31
x1 = 0.6164	1030.13
x1 = 0.7194	1065
x1 = 0.7803	1085.14
x1 = 0.8714	1114.75
x1 = 0.9006	1124.2
x1 = 0.9038	1125.2
x1 = 1	1155.45

CC(C)O [propan-2-ol]
Conditions	mass density [kg/m3]
[2]	780.95

CCCC(C)O (configuration not stated) [pentan-2-ol] + O=Cc1ccco1
[1]
Conditions	mass density [kg/m3]
x2 = 0	806.48
x2 = 0.092	831.24
x2 = 0.1912	859.17
x2 = 0.2652	880.87
x2 = 0.3627	910.83
x2 = 0.4245	930.64
x2 = 0.4984	955.28
x2 = 0.5417	970.2
x2 = 0.6211	998.57
x2 = 0.6746	1018.53
x2 = 0.7117	1032.71
x2 = 0.7692	1055.38
x2 = 0.8249	1078.15
x2 = 0.879	1101.1
x2 = 0.9111	1115.13
x2 = 0.9542	1134.34

Cc1ccco1 [2-methylfuran]
Conditions	mass density [kg/m3]
[2]	910.73

CC(C)O [propan-2-ol] + Cc1ccco1
Conditions	mass density [kg/m3]
[1], x2 = 0	780.95

CC(C)O [propan-2-ol] + O=Cc1ccco1
Conditions	mass density [kg/m3]
[1], x2 = 0	780.95

CCCCCO [pentan-1-ol]
Conditions	mass density [kg/m3]
[2]	810.9

CCCCCO [pentan-1-ol] + Cc1ccco1
Conditions	mass density [kg/m3]
[1], x2 = 0	810.9

CCC(C)O (configuration not stated) [butan-2-ol] + Cc1ccco1
Conditions	mass density [kg/m3]
[1], x2 = 0	802.88

CCC(C)O (configuration not stated) [butan-2-ol]
Conditions	mass density [kg/m3]
[2]	802.88

O=Cc1ccco1 [2-furaldehyde] + CCCCCCO
[1]
Conditions	mass density [kg/m3]
x1 = 0.0958	837.47
x1 = 0.1364	847.08
x1 = 0.1378	847.41
x1 = 0.2218	868.43
x1 = 0.2573	877.76
x1 = 0.2623	879.07
x1 = 0.2983	888.83
x1 = 0.3699	909.14
x1 = 0.4124	921.74
x1 = 0.4947	947.51
x1 = 0.4965	948.07
x1 = 0.5802	976.2
x1 = 0.6437	998.96
x1 = 0.7375	1035.07
x1 = 0.7661	1046.67
x1 = 0.7703	1048.36
x1 = 0.847	1081.45
x1 = 0.8939	1102.9
x1 = 1	1155.45

CCO [ethanol]
Conditions	mass density [kg/m3]
[2]	785.45

CCCCCCO [hexan-1-ol] + Cc1ccco1
Conditions	mass density [kg/m3]
[1], x2 = 0	815.9

Cc1ccco1 [2-methylfuran] + CCC(C)O
[1]
Conditions	mass density [kg/m3]
x1 = 0.0549	808.11
x1 = 0.0656	809.45
x1 = 0.0952	812.22
x1 = 0.1847	821.08
x1 = 0.2954	831.67
x1 = 0.3763	839.84
x1 = 0.4673	849.03
x1 = 0.5696	859.9
x1 = 0.6998	873.97
x1 = 0.7611	881.06
x1 = 0.8132	887.16
x1 = 0.8548	891.9
x1 = 0.8832	895.12
x1 = 0.8998	897.35
x1 = 0.9091	898.45
x1 = 0.9333	901.44
x1 = 1	910.73

Cc1ccco1 [2-methylfuran] + CC(C)O
[1]
Conditions	mass density [kg/m3]
x1 = 0.0267	785.02
x1 = 0.0493	788.28
x1 = 0.0908	794.29
x1 = 0.1257	799.31
x1 = 0.179	806.65
x1 = 0.2619	817.86
x1 = 0.2995	822.82
x1 = 0.3935	835.05
x1 = 0.537	853.23
x1 = 0.6047	861.52
x1 = 0.6784	870.65
x1 = 0.7217	876.04
x1 = 0.8122	886.89
x1 = 0.8256	888.45
x1 = 0.8759	894.66
x1 = 0.9472	903.47
x1 = 1	910.73

O=Cc1ccco1 [2-furaldehyde] + CCCCCO
[1]
Conditions	mass density [kg/m3]
x1 = 0.0837	833.12
x1 = 0.1212	843.42
x1 = 0.1906	863.01
x1 = 0.2617	883.85
x1 = 0.2997	895.29
x1 = 0.3856	922.11
x1 = 0.4254	934.98
x1 = 0.5075	962.35
x1 = 0.5396	973.38
x1 = 0.6236	1003.18
x1 = 0.708	1034.59
x1 = 0.7358	1045.18
x1 = 0.7671	1057.41
x1 = 0.8967	1110.25
x1 = 0.9015	1112.3
x1 = 1	1155.45

O=Cc1ccco1 [2-furaldehyde]
Conditions	mass density [kg/m3]
[2]	1155.45

Cc1ccco1 [2-methylfuran] + CCCC(C)O
[1]
Conditions	mass density [kg/m3]
x1 = 0.0907	813.42
x1 = 0.1322	816.51
x1 = 0.1794	820.47
x1 = 0.2576	827.04
x1 = 0.3029	831.05
x1 = 0.4278	842.47
x1 = 0.4997	849.64
x1 = 0.6108	861.2
x1 = 0.6993	871.1
x1 = 0.7296	874.59
x1 = 0.8143	884.9
x1 = 0.8675	891.71
x1 = 0.9023	896.39
x1 = 0.9441	902.21
x1 = 1	910.73

CCCCCCO [hexan-1-ol] + O=Cc1ccco1
Conditions	mass density [kg/m3]
[1], x2 = 0	815.9
